Assay results from publication PMC7224301, “Methodology for the identification of small molecule inhibitors of the Fanconi Anaemia ubiquitin E3 ligase complex” (Scientific Reports, 2020).

What was measured:
[1] = system: T1, FA core complex-mediated FANCD2 mono-ubiquitination; assay: FANCD2 mono-ubiquitination proximity assay (AlphaScreen), inhibitor format; assay type: biochemical, human proteins; Xenopus laevis FANCD2 and FANCI; conditions: at 0.3 µM
T1 construct: made in house; host or cells: High-Five insect cells (FANC-B-L-100, FANCD2-FANCI); E. coli BL21 (DE3) (UBE2T); UBE1 and ubiquitin from Boston Biochem
T1 sequence (Q9NW38 whole entry): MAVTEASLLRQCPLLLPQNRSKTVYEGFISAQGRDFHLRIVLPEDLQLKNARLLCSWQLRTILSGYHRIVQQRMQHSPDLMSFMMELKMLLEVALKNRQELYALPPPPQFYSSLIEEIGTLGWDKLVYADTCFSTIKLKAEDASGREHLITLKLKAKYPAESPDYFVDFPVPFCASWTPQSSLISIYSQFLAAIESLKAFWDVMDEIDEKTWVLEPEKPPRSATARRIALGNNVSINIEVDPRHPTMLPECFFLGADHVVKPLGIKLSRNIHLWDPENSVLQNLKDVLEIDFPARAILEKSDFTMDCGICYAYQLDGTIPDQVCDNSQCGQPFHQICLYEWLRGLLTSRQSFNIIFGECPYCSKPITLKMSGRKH
T1 sequence (Q8NB91 whole entry, further chain): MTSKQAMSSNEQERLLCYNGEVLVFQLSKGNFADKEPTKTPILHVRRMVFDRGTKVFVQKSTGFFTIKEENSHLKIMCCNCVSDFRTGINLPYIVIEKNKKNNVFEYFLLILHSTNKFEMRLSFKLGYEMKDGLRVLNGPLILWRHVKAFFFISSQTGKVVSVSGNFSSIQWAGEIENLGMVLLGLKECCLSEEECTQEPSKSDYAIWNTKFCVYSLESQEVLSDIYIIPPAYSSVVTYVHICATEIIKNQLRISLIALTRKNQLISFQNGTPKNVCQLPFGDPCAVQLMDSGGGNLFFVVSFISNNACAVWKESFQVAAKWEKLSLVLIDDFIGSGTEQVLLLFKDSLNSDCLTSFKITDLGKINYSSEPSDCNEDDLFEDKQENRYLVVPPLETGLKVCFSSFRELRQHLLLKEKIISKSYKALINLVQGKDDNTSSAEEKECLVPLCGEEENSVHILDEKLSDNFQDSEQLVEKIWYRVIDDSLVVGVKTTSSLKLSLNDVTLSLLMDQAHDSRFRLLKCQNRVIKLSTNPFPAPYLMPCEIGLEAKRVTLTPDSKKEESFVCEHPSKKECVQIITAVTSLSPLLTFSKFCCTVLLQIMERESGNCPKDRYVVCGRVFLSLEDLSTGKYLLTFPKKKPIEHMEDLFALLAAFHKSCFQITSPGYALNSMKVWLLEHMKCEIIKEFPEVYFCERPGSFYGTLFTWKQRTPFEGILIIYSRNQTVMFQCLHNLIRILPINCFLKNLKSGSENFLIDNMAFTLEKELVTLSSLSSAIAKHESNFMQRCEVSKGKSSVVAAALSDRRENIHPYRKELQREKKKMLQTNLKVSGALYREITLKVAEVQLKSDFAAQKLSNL
T1 sequence (Q0VG06 whole entry, further chain): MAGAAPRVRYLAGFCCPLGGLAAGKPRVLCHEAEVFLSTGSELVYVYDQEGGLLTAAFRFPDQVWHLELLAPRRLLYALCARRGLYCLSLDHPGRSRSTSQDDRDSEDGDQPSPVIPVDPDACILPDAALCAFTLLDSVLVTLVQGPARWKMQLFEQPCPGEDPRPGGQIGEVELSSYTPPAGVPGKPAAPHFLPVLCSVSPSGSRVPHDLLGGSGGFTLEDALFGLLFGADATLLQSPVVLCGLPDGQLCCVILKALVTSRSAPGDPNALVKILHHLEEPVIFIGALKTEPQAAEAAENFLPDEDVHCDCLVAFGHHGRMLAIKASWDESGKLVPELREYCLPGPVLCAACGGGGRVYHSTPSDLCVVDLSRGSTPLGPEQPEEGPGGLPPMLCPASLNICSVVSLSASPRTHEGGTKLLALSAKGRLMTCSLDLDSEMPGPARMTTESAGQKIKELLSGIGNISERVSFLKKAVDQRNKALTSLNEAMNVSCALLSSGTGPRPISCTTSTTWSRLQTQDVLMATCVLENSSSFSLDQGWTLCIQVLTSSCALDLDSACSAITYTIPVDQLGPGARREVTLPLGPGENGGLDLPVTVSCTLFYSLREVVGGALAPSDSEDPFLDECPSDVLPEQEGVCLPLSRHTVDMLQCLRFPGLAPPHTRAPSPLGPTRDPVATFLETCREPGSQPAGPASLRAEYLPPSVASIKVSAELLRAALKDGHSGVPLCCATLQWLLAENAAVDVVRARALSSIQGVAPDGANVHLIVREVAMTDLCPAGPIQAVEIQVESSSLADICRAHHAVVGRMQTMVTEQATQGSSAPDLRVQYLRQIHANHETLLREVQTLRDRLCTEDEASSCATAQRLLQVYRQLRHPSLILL
T1 sequence (Q00597 whole entry, further chain): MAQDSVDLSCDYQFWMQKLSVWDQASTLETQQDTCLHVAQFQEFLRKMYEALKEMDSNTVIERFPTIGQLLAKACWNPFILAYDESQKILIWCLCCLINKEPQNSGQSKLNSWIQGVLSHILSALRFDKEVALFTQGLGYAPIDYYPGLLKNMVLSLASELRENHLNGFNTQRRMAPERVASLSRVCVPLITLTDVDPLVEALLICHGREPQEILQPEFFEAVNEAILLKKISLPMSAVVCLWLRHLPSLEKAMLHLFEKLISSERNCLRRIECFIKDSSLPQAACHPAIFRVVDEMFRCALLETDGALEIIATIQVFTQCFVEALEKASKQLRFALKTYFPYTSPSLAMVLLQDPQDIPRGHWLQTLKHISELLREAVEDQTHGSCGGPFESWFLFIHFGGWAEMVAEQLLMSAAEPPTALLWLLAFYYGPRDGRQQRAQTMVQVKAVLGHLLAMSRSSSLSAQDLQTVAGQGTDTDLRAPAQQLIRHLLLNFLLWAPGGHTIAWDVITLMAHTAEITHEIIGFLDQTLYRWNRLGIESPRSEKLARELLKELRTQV
T1 sequence (Q9HB96 whole entry, further chain): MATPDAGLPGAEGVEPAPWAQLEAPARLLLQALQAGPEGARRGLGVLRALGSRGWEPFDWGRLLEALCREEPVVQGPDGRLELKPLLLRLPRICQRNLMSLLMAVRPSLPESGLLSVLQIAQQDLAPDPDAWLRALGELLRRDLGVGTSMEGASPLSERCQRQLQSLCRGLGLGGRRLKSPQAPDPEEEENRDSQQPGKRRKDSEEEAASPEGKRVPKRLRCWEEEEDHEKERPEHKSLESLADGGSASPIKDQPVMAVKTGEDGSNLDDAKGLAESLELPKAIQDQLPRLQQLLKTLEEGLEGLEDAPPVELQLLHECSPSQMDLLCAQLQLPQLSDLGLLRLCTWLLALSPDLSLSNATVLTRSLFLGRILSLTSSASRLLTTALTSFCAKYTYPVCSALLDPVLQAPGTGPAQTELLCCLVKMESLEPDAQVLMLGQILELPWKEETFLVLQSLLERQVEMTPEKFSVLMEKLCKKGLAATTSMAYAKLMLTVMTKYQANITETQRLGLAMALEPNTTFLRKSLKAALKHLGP
T1 sequence (Q9NPI8 whole entry, further chain): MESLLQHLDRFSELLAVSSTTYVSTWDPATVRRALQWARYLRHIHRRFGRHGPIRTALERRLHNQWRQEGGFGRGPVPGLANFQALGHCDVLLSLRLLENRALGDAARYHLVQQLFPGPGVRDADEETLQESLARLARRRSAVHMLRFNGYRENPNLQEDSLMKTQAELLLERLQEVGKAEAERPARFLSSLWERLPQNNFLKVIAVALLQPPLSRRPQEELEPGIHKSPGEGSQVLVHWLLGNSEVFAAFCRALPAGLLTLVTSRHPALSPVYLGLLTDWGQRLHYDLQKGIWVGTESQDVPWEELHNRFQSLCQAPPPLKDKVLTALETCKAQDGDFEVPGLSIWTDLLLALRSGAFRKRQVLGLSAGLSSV
From the text: The inhibitor assay includes recombinant ubiquitin, ubiquitin activating enzyme, FANCT, FANC-B-L-100, FANC-C-E-F, FANCI, FANCD2 and dsDNA[41] (Fig. 2a). For the activator assay, the activity stimulating adaptor complex FANC-C-E-F is omitted to give a baseline FANCD2-ubiquitination signal which enables a greater dynamic range to detect activation of the E3 ligase sub complex FANCB-L-100 (Fig. 2b,c). […] The gel-based FANCD2 mono-ubiquitination assay that we published previously[26] was modified to give a chemi-luminescent readout using a proximity assay (Materials and methods) (Fig. 1b). The purified proteins in the mono-ubiquitination assays used for the high-throughput screen are biotinylated-ubiquitin (b-ubiquitin), His-UBE1, FANCT, Flag-FANCB, FANCL, FAAP100, MBP-FANCC, FANCE, FANCF, GST-XlFANCD2 and Flag-XlFANCI. The assay was calibrated for maximal signal to background and for an optimal dynamic range within which small molecule modulators could be detected in a 384-well plate format. […]
For high-throughput screening, FANCD2 mono-ubiquitination was measured with a proximity assay (AlphaScreen, Perkin Elmer). […] The 520–620 nm signal provides a read out of FANCD2 mono-ubiquitination. […] All protein concentrations in the assay were determined by titration of each component for optimal activity (Fig. 2). […]

[2] = system: FANCD2 foci in SUM149 parental cells; assay: Nuclear FANCD2 foci formation (immunofluorescence), SUM149 parental; assay type: cell-based, human; conditions: for FANCD2 foci: 2 days exposure, DMSO = 3.80; for effect on FANCD2 foci formation: SUM149 parental cells (BRCA1-deficient), 1 µM
Procedure: FANCD2 foci formation is often used as an indicator of FA core complex functionality[40],[43]. Therefore, we selected 11 compounds to test at 1 µM in 384-well format for their ability to reduce FANCD2 foci formation in SUM149 parental BRCA1-deficient cells. […] An inhibitor of the FA pathway could exploit this dependency of FANCD2 activity to synergise with PARP inhibitors.
Nuclear FANCD2 foci were measured in high throughput by quantitating DAPI stained cell nuclei of either SUM149 or SUM149 B1.S* cell lines using automated confocal imaging (CX7 LZR, ThermoFisher Scientific). […] FANCD2 foci were detected with immunofluorescence using rabbit anti-human FANCD2 (abcam, ab108928).

SUM149.B1.S* cells = assay: Synthetic lethal cell assay (SRB cell viability), BRCA1-proficient control cells; assay type: cell-based, human; conditions: SUM149.B1.S* (BRCA1 reversion), 10 µM, 72 h
From the text: (§1) Therefore, we tested our preliminary inhibitors for the ability to kill BRCA1-deficient cells preferentially over isogenic BRCA1-proficient controls. To achieve this we exploited the triple negative breast cancer cell line SUM149[48] with a homozygous loss of function mutation in BRCA1 (c.2288delT, p.N723fsX13) and the daughter cell line, SUM149.B1.S* with one allele containing a secondary restoration of function mutation (an 80-bp BRCA1 deletion, c.[2288delT;2293del80])[49]. Twenty-five compounds were tested at 10 µM for preferential cytotoxicity in the BRCA1-deficient SUM149 (Fig. 5).
(§2) SUM149 parental cell line and SUM149 B1.S* cell lines[49] were seeded in a 96-well plate with 3000 cells per well. After 24 h, media was removed, and the cells were treated with 10 µM of each compound in triplicate in antibiotic free media and left for 72 h. Cell were fixed with 1% trichloroacetic acid and stained with sulphorhodamine B (SRB). Absorbance of wells were read at 550 nm.

SUM149 cells = assay: Synthetic lethal cell assay (SRB cell viability), BRCA1-deficient cells; assay type: cell-based, human; conditions: 10 µM, 72 h
From the text: as §1, §2

| Compound | FANCD2 foci ([2]; SUM149 parental cells) | effect on FANCD2 foci formation [2] | also measured |
| --- | --- | --- | --- |
| NS(=O)(=O)OC[C@H]1C[C@@H](Nc2ccnc3cc(-c4cccc(SC(F)(F)F)c4)nn23)[C@H](O)[C@@H]1O [TAK243] | 0.28 |  | inhibition of the FANCD2 mono-ubiquitination reaction [1]: > 50%; toxicity in the foci assay ([2]; SUM149 parental cells): highly toxic |
| CO[C@@]12[C@H](COC(N)=O)C3=C(C(=O)C(C)=C(N)C3=O)N1C[C@@H]1N[C@@H]12 [MMC, mitomycin C] | 5.45 |  |  |
| CNCc1ccc(-c2[nH]c3cc(F)cc4c3c2CCNC4=O)cc1 [rucaparib] |  | increased FANCD2 foci formation |  |
| C[C@]1(c2nc3c(C(N)=O)cccc3[nH]2)CCCN1 [veliparib] |  | increased FANCD2 foci formation |  |
| NC(=O)c1cccc2cn(-c3ccc([C@@H]4CCCNC4)cc3)nc12 [niraparib] |  | increased FANCD2 foci formation |  |
| O=C(c1cc(Cc2n[nH]c(=O)c3ccccc23)ccc1F)N1CCN(C(=O)C2CC2)CC1 [olaparib] |  | increased FANCD2 foci formation | survival (SUM149.B1.S* cells): 78.1%; survival (SUM149 cells): 33.3% |
